58 molecules from ChEMBL document CHEMBL1138583, “Pharmacophore modeling study based on known spleen tyrosine kinase inhibitors together with virtual screening for identifying novel inhibitors” (Bioorg Med Chem Lett, 2009) can be followed below.

The target in the first assay is T1, Tyrosine-protein kinase SYK (Homo sapiens, UniProt P43405). The assay can be described thus: Inhibition of recombinant Syk.
As for `Cc1cccc(Nc2nc(N[C@@H]3CCCC[C@@H]3N)ccc2C(N)=O)c1`, the IC50 was determined as 50 nM.
The same measure, in the same setting: in the case of `Cc1cc(Nc2nn(C(C)C)c(=O)c3cc(N4CCOCC4)ccc23)[nH]n1` it was 1100 nM; in that of `c1cc(COc2ccc(Nc3nccc(-c4nccs4)n3)cc2)ccn1`, 2000 nM; in that of `Cc1cc(C)cc(Nc2nc(N[C@H](CN)c3ccccc3)n3ccnc3c2C(N)=O)c1`, 21 nM.
For the molecule `COc1cc(/C=C/[N+](=O)[O-])ccc1O`, the IC50 worked out at 76000 nM.
Same read-out and setting: in the case of `O=[N+]([O-])c1ccccc1COc1ccc(Nc2nccc(-c3nccs3)n2)cc1` it was 2000 nM; in that of `Cc1cc(C)cc(Nc2nc(CC3CCCC[C@H]3N)n3ccnc3c2C(N)=O)c1` (stereo partly drawn), 2.5 nM; in that of `CCc1cc(NCC(C)(C)N)n2nc(Nc3cc(OC)cc(OC)c3)c(C(N)=O)c2n1`, 3890 nM.
On the same count and under the same terms, in the case of `COc1cc(/C=C/[N+](=O)[O-])ccc1OC(=O)c1ccccc1` it was 3800 nM.
The same measure, in the same setting: in the case of `Cc1cc(Nc2nccc(-c3nccs3)n2)cc(C(F)(F)F)c1` it was 110 nM.
As to `NCCCNc1nc(-c2cccc(C(F)(F)F)c2)cc2ncccc12`, the IC50 amounted to 830 nM.
Regarding `NCCCNc1ncc(C(N)=O)c(Nc2cccc(C(F)(F)F)c2)n1`, the IC50 was 230 nM.
Consider `COCCOc1ccc2c(Nc3cc(C)[nH]n3)nn(C(C)C)c(=O)c2c1`, for which the IC50 was found to be 894 nM.
As to `c1cncc(Oc2cccc(Nc3nccc(-c4nccs4)n3)c2)c1`, the IC50 was found to be 500 nM.
On the same count and under the same terms, in the case of `COc1cc(Nc2nc(N[C@@H]3CCCC[C@@H]3N)n3ncnc3c2C(N)=O)cc(OC)c1` it was 4 nM.
Regarding `COc1cc(Nc2nc(N[C@@H]3CCCC[C@@H]3N)n3cnnc3c2C(N)=O)cc(OC)c1`, the IC50 was 9 nM.
The same measure, in the same setting: in the case of `c1ccc(Oc2cccc(Nc3nccc(-c4nccs4)n3)c2)cc1` it was 1000 nM; in that of `COC(=O)c1ccc(COc2ccc(Nc3nccc(-c4nccs4)n3)cc2)cc1`, 2000 nM.
On the same count and under the same terms, to `N#C/C(=C\c1ccc(O)c(O)c1)C(N)=S` [TYRPHOSTIN 47] belongs 38000 nM; to `Cc1cc(Nc2nn(CC3CCCNC3)c(=O)c3ccccc23)[nH]n1` (stereo not drawn), 6530 nM.
In the case of `Fc1ccc(Nc2nccc(-c3nccs3)n2)cc1`, the IC50 turned out to be 1000 nM.
The same measure, in the same setting: to `CCOc1cccc(Nc2nc(NCCN)ncc2C(N)=O)c1` belongs 81 nM.
On the same count and under the same terms, in the case of `Oc1ccc(Nc2nccc(-c3nccs3)n2)cc1` it was 500 nM.
Consider `c1c[nH]c(-c2ccnc(Nc3ccc(Oc4ccc5c(c4)OCO5)cc3)n2)c1`, for which the IC50 came to 500 nM.
Still for that read-out and setting: to `N#Cc1cccc(Nc2nc(NCCN)ncc2C(N)=O)c1` belongs 110 nM; to `COc1ccc(CNS(=O)(=O)c2ccc3c(c2)/C(=C/c2cn(C)c4ccc(OC)cc24)C(=O)N3)cc1`, 4000 nM.
The same measure, in the same setting: in the case of `COc1cc(Nc2nc(NC3CCCC[C@H]3N)n3ncnc3c2C(N)=O)cc(OC)c1` (stereo partly drawn) it was 1 nM; in that of `c1ccn(CCOc2ccc(Nc3nccc(-c4nccs4)n3)cc2)c1`, 500 nM.
Still for that read-out and setting: in the case of `Cc1ncc(C(N)=O)c(Nc2cccc(C(F)(F)F)c2)n1` it was 5000 nM; in that of `c1cc(-c2nccs2)nc(Nc2ccc(OCC3CCCCC3)cc2)n1`, 2000 nM.
With `CC(C)Oc1cccc(Nc2nc(NCCN)ncc2C(N)=O)c1`, the IC50 came out at 72 nM.
Still for that read-out and setting: in the case of `OCCCOc1cc(Nc2nccc(-c3nccs3)n2)cc(C(F)(F)F)c1` it was 26 nM; in that of `COc1c(C[C@@H](C)OC(=O)Oc2ccc(O)cc2)c2c3c(C[C@@H](C)OC(=O)c4ccccc4)c(OC)c(=O)c4c(O)cc(OC)c(c5c(OC)cc(O)c(c1=O)c52)c43` [CALPHOSTIN C], 1100 nM; in that of `Cc1ccc(C)c(Nc2nccc(-c3nccs3)n2)c1`, 1820 nM.
As to `Cc1cc(C)cc(Nc2nccc(-c3nc(C)cs3)n2)c1`, the IC50 was 56 nM.
Consider `FC(F)(F)c1ccc(Nc2nccc(-c3nccs3)n2)cc1`, for which the half-inhibitory concentration (IC50) was found to be 500 nM.
Still for that read-out and setting: to `CN(C)CCN(C)c1ncc(C(N)=O)c(Nc2cccc(C(F)(F)F)c2)n1` belongs 10000 nM; to `Cc1cc(Nc2nccc(-c3nc(C)c(CCO)s3)n2)cc(C(F)(F)F)c1`, 22 nM; to `COc1cc(Nc2nc(NC3CCCCC[C@H]3N)n3ccnc3c2C(N)=O)cc(OC)c1` (stereo partly drawn), 1.6 nM.
Regarding `NC(=O)c1cncnc1Nc1cccc(C(F)(F)F)c1`, the IC50 was 5000 nM.
On to `CS(=O)(=O)c1cccc(Oc2cccc(Nc3nccc(-c4nccs4)n3)c2)c1`, for which the IC50 amounted to 500 nM.
With `c1ccc(COc2ccc(Nc3nccc(-c4nccs4)n3)cc2)cc1`, the IC50 was determined as 1000 nM.
Still for that read-out and setting: to `c1ccc2cc(Nc3nccc(-c4nccs4)n3)ccc2c1` belongs 2000 nM; to `Nc1ccccc1COc1ccc(Nc2nccc(-c3nccs3)n2)cc1`, 500 nM.
In the case of `COc1cc(Nc2nc(NC3CCCC[C@H]3N)n3nc(C)nc3c2C(N)=O)cc(OC)c1` (stereo partly drawn), the IC50 is 11.2 nM.
The same measure, in the same setting: in the case of `CC(C)c1cccc(Nc2nc(NCCN)ncc2C(N)=O)c1` it was 92 nM; in that of `COc1cc(Nc2nc(NC3CCCC[C@H]3N)n3cnnc3c2C(N)=O)cc(OC)c1` (stereo partly drawn), 3.7 nM; in that of `c1ccc(COc2cccc(Nc3nccc(-c4nccs4)n3)c2)cc1`, 500 nM.
Same read-out and setting: to `Cc1cc(C)cc(Nc2nccc(-c3nc(C)c(CCO)s3)n2)c1` belongs 32 nM; to `NCCNc1ncc(C(N)=O)c(Nc2ccccc2)n1`, 280 nM.
As for `COc1cc(Nc2nc(NC3CCCC[C@H]3N)n3nc(-c4cccc(O)c4)nc3c2C(N)=O)cc(OC)c1` (stereo partly drawn), the IC50 amounted to 7 nM.
Same read-out and setting: to `Cc1c(/C=C2/C(=O)Nc3ccc(S(N)(=O)=O)cc32)c2ccccc2n1C` belongs 4000 nM.
The same measure, in the same setting: to `COC(=O)c1ccccc1-c1ccc(/C=C2/SC(=S)N(Cc3ccccc3)C2=O)o1` belongs 4000 nM; to `CCc1cccc(Nc2nc(NCCN)ncc2C(N)=O)c1`, 53 nM; to `CN(C)c1ccc(-c2cc3ncccc3c(NC(C)(C)CN)n2)cc1`, 310 nM.
As to `Cc1cc(Nc2nn(C(C)C)c(=O)c3cc(N4CCN(C)CC4)ccc23)[nH]n1`, the IC50 amounted to 5360 nM.

A further assay concerns the target T1, Tyrosine-protein kinase SYK. The assay can be described thus: Inhibition of recombinant Syk at 10 uM.
Regarding `COc1cccc2cc(C(N)=O)/c(=N/c3ccc(-c4ccccc4)cc3)oc12`, the inhibition was determined as 63%.
Same read-out and setting: to `O=C1NC(=O)N(c2cccc(Cl)c2)C(=O)/C1=C\Nc1ccc(Cl)cc1[N+](=O)[O-]` belongs 51%.

A word on the IC50: it is the concentration at which inhibition is half-maximal. A word on the inhibition: it is the change of the read-out against control, counted positive when it falls.
